{
  "source": "patent US20050240034A1",
  "about": "“Artemisinin-based peroxide compounds as broad spectrum anti-infective agents” (priority 2002, published 2005)",
  "key": {"P. falciparum": {"test_system": "P. falciparum", "conditions": "cited from earlier work"}, "[1]": {"test_system": "P. falciparum Sierra Leone D6 clone", "experiment": "WHO/TDR in vitro antimalarial screen (uptake of radiolabeled nucleic acid precursor), D6 clone", "assay_type": "cell-based, Plasmodium falciparum", "conditions": "mefloquine-resistant, chloroquine-sensitive, second value in brackets not explained", "procedure": "(§1) All test compounds are solubilized in DMSO and diluted 400 fold (to rule out a DMSO effect) in culture medium with plasma for a starting concentration of at least 12,500 ng/mL. Drugs are subsequently diluted five fold using the Cetus Pro/Pette system utilizing a range of concentrations from 0.8 ng/mL to 12,500 ng/mL. Fifty percent inhibitory concentrations are reported in ng/mL.\n(§2) The D6 African P. falciparum clone is sensitive to chloroquine, pyrimethamine and sulfadoxine but resistant to mefloquine. The W2 Indochina P. falciparum clone is resistant to chloroquine, pyrimethamine and sulfadoxine but sensitive to mefloquine. The K1 P. falciparum is a resistant strain, where NF54 P. falciparum is a sensitive strain."}, "aqueous solubility": {"experiment": "aqueous solubility", "assay_type": "physicochemical", "conditions": "pH 6.5, phosphate buffer", "procedure": "(§3) Compounds 39 and 36 have reasonably low plasma LOQ of about 10 ng/mL, so it will be tested with lower oral doses in the coming future. If we assume that it is only the fraction of drug in solution that is absorbed, then the oral bioavailabilities may well increase with lower doses."}, "P. falciparum NF54": {"test_system": "P. falciparum NF54", "experiment": "WHO/TDR in vitro antimalarial screen, NF54", "assay_type": "cell-based, Plasmodium falciparum", "conditions": "NF54, chloroquine-sensitive; second value in brackets not explained", "procedure": "as §1, with “[…]. All” for “All”\nas §2"}, "[2]": {"test_system": "P. falciparum W2 (IndoChina)", "experiment": "antimalarial parasite LDH (pLDH) assay, W2", "assay_type": "cell-based, Plasmodium falciparum", "conditions": "for P. falciparum (IC50) W2: LDH assay, Table 6; for S. I. (W2): Selectivity Index = IC50 (Vero cells)/IC50 (P. falciparum)", "procedure": "(§4) The Thad Cochran National Center for Natural Products Research (University of Mississippi) in vitro antimalarial screen was conducted using an enzyme assay for detection of P. falciparum (see procedure below). This assay is based on the observation that lactate dehydrogenase (LDH) of P. falciparum is distinguishable from host LDH activity. P. falciparum LDH rapidly uses 3-acetyl pyridine nicotinamide adenine dinucleotide (APAD) as a coenzyme in the biotransformation of […].^38 The same process is carried out in human red blood cells at a very slow rate.\n(§5) The “Antimalarial parasite LDH assay” is currently being conducted according the following procedure: prepare a suspension of RBC with a 2% parasitemia and 2% hematocrit in malaria complete medium. Dispense 200 μl aliquots of this suspension into each well of a 96 well microtiter plate. Add 10 μl volumes of the drugs to be tested in duplicate to the appropriate wells. Place the plates into humidified chamber and flush the cultures with a gas mixture consisting of 90% N2, 5% O2, and 5% CO2. Transfer the chamber containing the plates to an incubator, and incubate for 48 hours at 37° C. After 48 hours add 100 μl aliquots of the Malstat™ reagent to each well of a new 96-well microtiter plate Resuspend the cultures from the assay plate by mixing each well up and down several times. Remove 20 μl from each well of the resuspend culture and add to the plate containing the Malstat™ reagent. Incubate the plates at room temperature for 30 minutes. After 30 minutes, add to each well 20 μl of the 1:1 mixture of the NBT/PES solution (2 mg/ml and 0.1 mg/ml, respectively). Incubate the plates in the dark for 1 hour. Add 100 μl of 5% acetic acid solution to stop the reaction. The plate is then read at an endpoint of approximately 650 nm. The dose response curves are generated using Microsoft Excel.\n(§6) Antimalarial activity of the analogues was determined in vitro on chloroquine sensitive (D)6, Sierra Leone) and resistant (W2, IndoChina) strains of Plasmodium falciparum. The 96 well microplate assay is based on evaluation of the effect of the compounds on the growth of asynchronous cultures of P. falciparum, determined by the assay of parasite lactate dehydrogenase (pLDH) activity.^28 The appropriate dilutions of the compounds were prepared in DMSO or RPMI-1640 medium and added to the cultures of P. falciparum (2% hematocrit, 2% parasitemia) set up in clear flat bottomed 96 well plates. The plates were placed into the humidified chamber and flushed with a gas mixture of 90% N2, 5% CO2 & 5% O2. The cultures were incubated at 37° C. for 48 hours. Growth of the parasite in each well was determined by pLDH assay using Malstat® reagent. The medium and RBC controls were also set-up in each plate."}, "P. falciparum K1": {"test_system": "P. falciparum K1", "experiment": "WHO/TDR in vitro antimalarial screen, K1", "assay_type": "cell-based, Plasmodium falciparum", "conditions": "K1, chloroquine-resistant", "procedure": "as §1, with “[…]. All” for “All”\nas §2"}, "[3]": {"test_system": "P. falciparum Indochina W2 clone", "experiment": "WHO/TDR in vitro antimalarial screen, W2 clone", "assay_type": "cell-based, Plasmodium falciparum", "conditions": "chloroquine-resistant, mefloquine-sensitive, second value in brackets not explained", "procedure": "as §1, §2"}, "P. berghei N": {"test_system": "P. berghei N", "experiment": "in vivo Peter's 4-day antimalarial test in mice, P. berghei N", "conditions": "mice, 4-day test, unit not given; for P. berghei N P.O. ED50 / P. berghei N P.O. ED90: oral; for P. berghei N S.C. ED50 / P. berghei N S.C. ED90: subcutaneous", "procedure": "(§7) The parasitemia is determined on the day following the last treatment—day 4 to determine qualitatively the presence and degree of activity at the screening dose."}, "[4]": {"experiment": "pharmacokinetics in rats after intravenous and oral administration", "assay_type": "in vivo", "conditions": "for absolute oral bioavailability: high oral dose (~120 mg/kg)", "procedure": "Preliminary data for the PK results of compounds 39 and 36 have been disclosed. […] Due to their very low aqueous solubility, the absolute oral bioavailability of each compound was low. The low value is rather a function of the high oral dose (˜120 mg/kg), but even with these high doses, the plasma concentrations are still relatively low.\nThe reason for the use of high oral dose is that the LC/MS assay has different intrinsic sensitivities for the different series of the Malperox compounds. Also, in order to compare all compounds from the different series at the same oral molar dose (dictated by the compound, which has the highest LOQ in the assay), it was necessary for them to have gone with this dose.\nas §3\nSolubility limitations meant that 36 could only be dosed IV at approximate 2 mg/kg (compared with the approximate 12 mg/kg dose for 39). It is possible that the shorter measured half life for 36 was a function of lower plasma concentrations, which have reflected part of the distribution phase rather than a true elimination phase."}, "P. yoelli ssp. NS": {"test_system": "P. yoelli ssp. NS", "experiment": "in vivo 4-day antimalarial test in mice, P. yoelli ssp. NS", "conditions": "subcutaneous; unit not given", "procedure": "as §7"}, "[5]": {"test_system": "VERO cells (monkey kidney fibroblast)", "assay_type": "cell-based", "procedure": "Antileishmanial activity of the compounds was tested on a transgenic cell line of Leishmania donovani promastigotes expressing firefly luciferase.^29a In a 96 well microplate assay, compounds with appropriate dilution were added to the leishmania promastigotes culture (2×10^6 cell/mL). The plates were incubated at 26° C. for 72 hours and growth of leishmania promastigotes was determined by luciferase assay with Steady Glo® reagent (Promega, USA). Pentamidine and Amphotericin B were used as standard antileishmanial agents. The analogues were simultaneously tested for cytotoxicity on VERO cells (monkey kidney fibroblast) by Neutral Red assay.^29b IC50 values for the compounds were computed from the growth inhibition curve."}, "[6]": {"test_system": "P. falciparum D6 (Sierra Leone)", "experiment": "antimalarial parasite LDH (pLDH) assay, D6", "assay_type": "cell-based, Plasmodium falciparum", "conditions": "for P. falciparum (IC50) D6: LDH assay, Table 6; for S. I. (D6): Selectivity Index = IC50 (Vero cells)/IC50 (P. falciparum)", "procedure": "as §4, §5\nas §6, with “plate. The standard antimalarial agents, chloroquine and artemisinin, were used as the positive controls while DMSO was tested as the negative control.” for “plate.”"}},
  "data": [
    {"compound": "C[C@H]1[C@@H](O)O[C@@H]2O[C@@]3(C)CC[C@H]4[C@H](C)CC[C@@H]1[C@@]24OO3", "note": "[dihydroartemisinin]", "values": [
      {"measurement": "times more potent than the parent compound (artemisinin) in vitro", "setting": "P. falciparum", "result": "approximately 10 times"}
    ]},
    {"compound": "(+)-Octahydro-3,6α-dimethyl-3,12-epoxy-9β-(3′-(m-chlorophenyl)propyl)-12H-pyrano[4,3j]-1,2-benzodioxepin [Compound 36]", "values": [
      {"measurement": "P. falciparum (IC50) D6", "setting": "[1]", "result": 0.00755, "unit": "µg/mL"},
      {"measurement": "aqueous solubility", "setting": "aqueous solubility", "result": "~0.1", "unit": "microgram per mL"},
      {"measurement": "P. falciparum (IC50) NF54", "setting": "P. falciparum NF54", "result": "16.27 (40.19) ng/mL"},
      {"measurement": "P. falciparum (IC50) W2", "setting": "[2]", "result": 0.008, "unit": "µg/mL"},
      {"measurement": "S. I. (W2)", "setting": "[2]", "result": ">60"},
      {"measurement": "P. falciparum (IC50) K1", "setting": "P. falciparum K1", "result": 0.01007, "unit": "µg/mL"},
      {"measurement": "P. falciparum (IC50) W2", "setting": "[3]", "result": 0.0216, "unit": "µg/mL"},
      {"measurement": "P. berghei N P.O. ED50", "setting": "P. berghei N", "result": "2.0 (0.9-3.5)"},
      {"measurement": "P. berghei N P.O. ED90", "setting": "P. berghei N", "result": "8.3 (3.5-14.0)"},
      {"measurement": "P. berghei N S.C. ED50", "setting": "P. berghei N", "result": "0.5 (0.1-1.0)"},
      {"measurement": "P. berghei N S.C. ED90", "setting": "P. berghei N", "result": "0.9 (0.3-1.8)"},
      {"measurement": "absolute oral bioavailability", "setting": "[4]", "result": "low"},
      {"measurement": "P. yoelli ssp. NS (S.C.) ED50", "setting": "P. yoelli ssp. NS", "result": "0.60 (0.4-1.0)"},
      {"measurement": "P. yoelli ssp. NS (S.C.) ED90", "setting": "P. yoelli ssp. NS", "result": "1.00 (0.8-1.8)"},
      {"measurement": "Cytotoxicity (Vero) TC50", "setting": "[5]", "result": "NC^b"},
      {"measurement": "P. falciparum (IC50) D6", "setting": "[6]", "result": 0.0076, "unit": "µg/mL"},
      {"measurement": "S. I. (D6)", "setting": "[6]", "result": ">63.0"}
    ]},
    {"compound": "(+)-Octahydro-3,6α-dimethyl-3,12-epoxy-9β-(3′-(p-trifluoromethylphenyl)propyl)-12H-pyrano[4,3j]-1,2-benzodioxepin [Compound 39]", "values": [
      {"measurement": "P. falciparum (IC50) D6", "setting": "[1]", "result": 0.02813, "unit": "µg/mL"},
      {"measurement": "aqueous solubility", "setting": "aqueous solubility", "result": "~0.1", "unit": "microgram per mL"},
      {"measurement": "P. falciparum (IC50) NF54", "setting": "P. falciparum NF54", "result": "101.52 (48.78) ng/mL"},
      {"measurement": "P. falciparum (IC50) W2", "setting": "[2]", "result": 0.012, "unit": "µg/mL"},
      {"measurement": "S. I. (W2)", "setting": "[2]", "result": ">40"},
      {"measurement": "P. falciparum (IC50) K1", "setting": "P. falciparum K1", "result": 0.03955, "unit": "µg/mL"},
      {"measurement": "P. falciparum (IC50) W2", "setting": "[3]", "result": 0.05801, "unit": "µg/mL"},
      {"measurement": "P. berghei N P.O. ED50", "setting": "P. berghei N", "result": "0.63 (0.32-1.25)"},
      {"measurement": "P. berghei N P.O. ED90", "setting": "P. berghei N", "result": "2.1 (1.1-4.1)"},
      {"measurement": "P. berghei N S.C. ED50", "setting": "P. berghei N", "result": "0.44 (0.25-0.62)"},
      {"measurement": "P. berghei N S.C. ED90", "setting": "P. berghei N", "result": "0.85 (0.5-1.2)"},
      {"measurement": "half-life", "setting": "[4]; IV, approximate 12 mg/kg", "result": 1.22, "unit": "h"},
      {"measurement": "absolute oral bioavailability", "setting": "[4]", "result": "low"},
      {"measurement": "P. yoelli ssp. NS (S.C.) ED50", "setting": "P. yoelli ssp. NS", "result": "0.67 (0.5-0.88)"},
      {"measurement": "P. yoelli ssp. NS (S.C.) ED90", "setting": "P. yoelli ssp. NS", "result": "1.25 (0.95-1.6)"},
      {"measurement": "P. falciparum (IC50) D6", "setting": "[6]", "result": 0.012, "unit": "µg/mL"},
      {"measurement": "S. I. (D6)", "setting": "[6]", "result": ">40"}
    ]}
  ]
}
